Structures can show the parent of a compound that is named as a salt. Where two headings read alike, the source gives them in different places.
Experiments:
[1] = test system: amyotrophic lateral sclerosis; conditions: ALS patients; cited from earlier work
[2] = test system: immortalized SMA fibroblasts; assay: Distribution of the SMN protein to Cajal bodies (CBs) in immortalized SMA fibroblasts, immunolabeling, cells counted; assay type: cell-based, human; conditions: for induction factor of cells with SMN protein in CBs (DMSO = 1): 24 hours of treatment at 2 micrograms/ml, immortalized SMA fibroblasts; for Maximum induction: at 2 μg/ml, DMSO = 1; for Maximum induction / Dilution at EC50: immortalized type I line; for Dilution at EC50: dilution relative to 2 μg/ml
Method: This immortalization is described in the publication Lefebvre S, Burlet P, Viollet L, Bertrandy S, Huber C, Belser C and Munnich A. A novel association of the SMN protein with major non-ribosomal nucleolar proteins and its implication in spinal muscular atrophy. Hum Mol Genet (2002) 11 (9): 1017-1027.
The blockers of the invention are commercially available (for example from Sigma-Aldrich) and are sold in 96-well plates, at 2 milligrams per molecule per well to be dissolved in 1 ml of DMSO.
In order to determine whether the calcium channel blockers exerted a positive effect, the inventors counted the cells which had the SMN protein located in the CBs out of 100 cells randomly selected for each experiment.
This experiment was repeated three times.
A value of induction by a factor equal to 1 was arbitrarily assigned to DMSO.
In order to evaluate the relationship between the concentration (dose) and the effect (response) on the CBs of the immortalized SMA cells, the inventors constructed a dose-response curve for each of the molecules.

immortalized SMA cells = assay: Co-immunolabeling of coilin and TMG cap: snRNPs at the level of CBs in immortalized SMA cells; assay type: cell-based, human; conditions: 24 hours of treatment; chi-2, 0.001<p<0.01; n=300 cells
Method: Co-immunolabeling experiments similar to the previous ones were carried out on the immortalized SMA cells using two commercial antibodies, one specific for the coilin protein (CBs marker) and the other for the trimethylguanosine (TMG) cap of the small nuclear RNAs of snRNPs.
These tests show an increase in the SMN protein and in the snRNPs in Cajal bodies in the immortalized SMA line from the severe form of the disease (type I), induced by the calcium channel blockers of the invention. The mean value for the snRNPs is calculated from the three experiments (n=300 cells).

[3] = humans, cited from earlier work; for maximum plasma level: oral, 10 mg per day

Row | SMILES | induction factor of cells with SMN protein in CBs (DMSO = 1) [2] | Maximum induction [2] | Dilution at EC50 [2] | also measured
1 | Nc1nc2ccc(OC(F)(F)F)cc2s1 [Riluzole] | – | – | – | improvement of patient prognosis [1]: 30%
2 | CC(C)C[C@H](CN)CC(=O)O [pregabalin] | 1.7 | – | – | –
3 | NCC1(CC(=O)O)CCCCC1 [Gabapentin, 2-[1-(aminomethyl)cyclohexyl]acetic acid] | approximately 3.3 | 4.4 ± 1.0 | 1/55 | EC50 ([2]; Homo sapiens, Fibroblast): 210 ± 38 nM
4 | CCCCc1oc2ccccc2c1C(=O)c1cc(I)c(OCCN(CC)CC)c(I)c1 [Amiodarone hydrochloride, (2-butyl-3-benzofuranyl)[4-[2-(diethylamino)ethoxy]-3,5-diiodophenyl]methanone hydrochloride] | approximately 2.8 | 2.8 ± 1.0 | – | –
5 | Fc1ccc(C(c2ccc(F)cc2)N2CCN(C/C=C/c3ccccc3)CC2)cc1 [Flunarizine dihydrochloride, flunarizine dihydrochloride] | approximately 4.8 | 4.8 ± 1.5 | 1/53 | induction factor of SMN protein distribution to CBs (DMSO = 1) ([2]; compounds diluted to 1/1000 compared with examples 1 and 2, FIG. 1): 1.2; snRNPs at the level of the CBs (immortalized SMA cells): significant increase; maximum plasma level [3]: approximately 81±16 nanograms/ml; maximum plasma level ([3]; converted from ng/ml): approximately 170±34 nM; elimination half-life [3]: long

— patent publication US20150238483A1, “Traitement des neuronopathies motrices” (CENTRE NATIONAL DE LA RECHERCHE SCIENTIFIQUE- CNRS, priority 2012, published 2015)
